Reference: publication PMC11276905 (International Journal of Molecular Sciences, 2024)
“Also recorded” adds a separate entry of the source. Read-outs that look alike come from different tables or passages of the source. Where a SMILES comes first, the peptide text is derived from it. The star is where a group is joined. MeOSuc = COC(=O)CCC(=O)*; CH2Cl = ClC*

Experiments:
[1] = target: T1, isolated HNE (human neutrophil elastase) (Homo sapiens, UniProt P08246); experiment: Inhibition of isolated HNE, steady-state kinetics (MeOSuc-AAPV-AMC); assay type: biochemical; conditions: for Ki: incubated 1 h 37 °C, Morrison fit, mean ± SD, compound 5b in phosphate buffer pH 7.4; for inhibition of HNE (in words): negative controls
T1 construct: immediately processed to its active form in the trans-Golgi before being targeted to azurophil granules; purchased Merck (Darmstadt, Germany) 324681
T1 sequence (P08246 30-267): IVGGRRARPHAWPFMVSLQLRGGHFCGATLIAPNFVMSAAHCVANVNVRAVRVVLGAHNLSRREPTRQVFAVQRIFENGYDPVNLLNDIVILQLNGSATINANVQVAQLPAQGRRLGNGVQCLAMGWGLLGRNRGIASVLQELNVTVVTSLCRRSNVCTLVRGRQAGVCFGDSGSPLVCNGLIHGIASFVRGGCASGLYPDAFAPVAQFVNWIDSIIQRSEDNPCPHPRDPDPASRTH
Protocol: (§1) To determine the inhibition constants of reversible inhibitors with isolated HNE and HNE in cell lysates, HNE (0.5 nM) and U937 lysates (1000 cells/µL) were incubated with serial dilutions of the compounds in assay buffer at 37 °C for ≥ 1 h. Subsequently, residual HNE activity was measured as described above and compared to the activity of uninhibited HNE. […] The inhibition curves generated were fitted to Morrisons’s equation to obtain the dissociation equilibrium constant Ki with pro-Fit (Quantum Soft, Uetikon am See, Switzerland) using a Levenberg–Marquardt algorithm.

[2] = target: T2, HNE in U937 lysates (Homo sapiens, UniProt P08246); experiment: Inhibition of HNE activity in U937 lysates; assay type: biochemical; conditions: for Ki: U937 lysate 1000 cells/µL, incubated 1 h 37 °C, Morrison fit, mean ± SD
T2 construct: the myeloid cell line U937, which can differentiate into neutrophils [25] and expresses HNE; host or cells: U937 (histiocytic lymphoma), undifferentiated
T2 sequence (P08246 30-247 limits assumed): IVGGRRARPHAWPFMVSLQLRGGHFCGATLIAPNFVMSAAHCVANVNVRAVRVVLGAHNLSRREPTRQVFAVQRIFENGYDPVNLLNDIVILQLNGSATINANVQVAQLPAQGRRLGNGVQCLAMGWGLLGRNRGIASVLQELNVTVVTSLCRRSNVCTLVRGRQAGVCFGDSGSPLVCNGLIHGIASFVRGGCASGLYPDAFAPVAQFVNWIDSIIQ
Protocol: (§2) For the quantification and characterization of HNE-like activity in cell lysates, the density of the sample cell suspension was first quantified using a CASY-1 cell counter.
as §1

[3] = target: T3, HNE in U937 cells (Homo sapiens, UniProt P08246); experiment: Intracellular HNE inhibition in cultured U937 cells (residual activity in lysates); assay type: cell-based; conditions: for time course of HNE inhibition in U937 cells (in words): 0-26 h culture; for effect on HNE activity in the U937 cell culture model (in words): 0-26 h, increasing concentrations, alvelestat and sivelestat up to more than 1000-fold above Ki
T3 construct: the myeloid cell line U937, which can differentiate into neutrophils [25] and expresses HNE; host or cells: U937 (histiocytic lymphoma), undifferentiated
T3 sequence (P08246 30-247 limits assumed): T2 sequence (P08246 30-247 limits assumed)
Protocol: (§3) The enzymatic activity of HNE was measured using a fluorescence-based assay in 96-well black bottom plates (Corning®, 003916, New York, NY, USA). HNE (0.5 nM) or cell lysates (20 µL, ~100 PMN/µL, ~1000 U937/µL, ~5000 HL-60/µL or ~1000 HMC-1/µL) were diluted in assay buffer (200 mM TRIS HCl, 500 mM NaCl, 0.05% Tween-20, pH 8.0). […] AMC (7-Amino-4-methylcoumarin) standard curves were generated by measuring serial dilutions of the fluorophore AMC (1 µM–0 µM) in assay buffer on the same plate and used to calculate nM AMC generation from fluorescence measurements.
(§4) U937 cells were plated in sterile 96-U-well plates (92697, TPP, Trasadingen, Switzerland) at a density of 100 cells/µL in a cell culture medium (180 µL per well). Increasing concentrations of inhibitors and solvent controls were diluted in a culture medium and added (20 µL/well) to the 96-well plate 26 h, 6 h, 3 h, and 0 h before harvesting and lysing the cells (see below). Plates were kept at 37 °C, 5% CO2, and 95% humidity throughout the incubation period. […] Similarly, freshly isolated PMN were plated at 50–100 cells/µL in PBS (1 g/L glucose) and incubated for 1 h with inhibitors or controls.
(§5) For cell lysis, cells were pelleted in the microtiter plates by centrifugation (400× g, 10 min, 4 °C) and washed three times in PBS (4 °C). Washed cells were then lysed by adding lysis buffer (PBS, 1 M NaCl, 0.1% Tween-20, pH 7.4) and freeze–thawing on dry ice. Finally, lysates were centrifuged (2100× g) to remove cell debris. Enzymatic activity of HNE was determined as described above, and residual activity present after incubation with inhibitors expressed as % of matched solvent controls.

[4] = target: T4, isolated HNE (Homo sapiens, UniProt P08246); experiment: Formation and dissociation of the HNE/inhibitor complex (pre-steady-state kinetics); assay type: biochemical; conditions: for koff: koff = Ki × kon, irreversible inhibitors ≈ zero; for kon: pre-steady-state kinetics, HNE 0.6 nM, 37 °C, mean ± SD
T4 construct: immediately processed to its active form in the trans-Golgi before being targeted to azurophil granules; purchased Merck (Darmstadt, Germany) 324681
T4 sequence (P08246 30-267): T1 sequence (P08246 30-267)
Protocol: To determine the association rates (kon) of the inhibitors, the enzymatic activity of HNE (0.6 nM) was recorded continuously in an SFM25 fluorometer (Biotek Kontron, Neufahrn, Germany) by following the cleavage of MeOSuc-AAPV-AMC (10 µM) at 37 °C. When a constant rate was established (i.e., after 1–5 min), an inhibitor was added, and the reaction followed for up to 60 min. The pseudo-first-order rate constant kobs was obtained by fitting the observed presteady-state progress curve to the integrated equation of Morrison with pro-Fit. Apparent second-order rate constants were subsequently calculated as k2/Ki = kobs/It by linear regression from several independent experiments using a range of concentrations. For reversible inhibitors, the dissociation rate koff was subsequentially calculated as koff = Ki × kon; for irreversible inhibitors, koff is ≈ zero. Finally, the halftime of the HNE/inhibitor complex formation and dissociation were calculated as t1/2,on = 0.693/(kass × It + koff) and t1/2,off = 0.693/koff, respectively.

[5] = target: T5, HNE in mature PMN (Homo sapiens, UniProt P08246); experiment: Intracellular HNE inhibition in freshly isolated mature PMN; conditions: for potency in PMN compared with U937 cells (in words): PMN 1 h vs U937 0-3 h
T5 sequence (P08246 30-247 limits assumed): T2 sequence (P08246 30-247 limits assumed)
Protocol: Peripheral venous blood was collected from six healthy donors after informed consent (votum 018-09 of the local ethics committee), and differential blood counts were performed. Neutrophil granulocytes were isolated using the MACSxpress neutrophil isolation kit (Miltenyi Biotec, Bergisch Gladbach, Germany) following the manufacturer’s instructions. Residual erythrocytes were eliminated by hypotonic lysis. Neutrophils were resuspended in PBS with glucose (1 g/L) at a density of 50–100 cells/µL. The purity of the final cell population was analyzed by staining a smear using Pappenheim’s method and counting ≥200 cells using a light microscope.
as §3, §4, §5

[6] = target: T4, isolated HNE; parameters: method as in PMID 21791628; conditions: cited from earlier work
[7] = Inhibitor stability in serum-free cell culture medium; assay type: physicochemical; conditions: 26 h, serum-free medium, 37 °C
Protocol: Inhibitors were prepared as above and incubated for 26 h in RPMI at 37 °C. Residual inhibitor activity was compared to the activity of freshly prepared compounds by measuring the inhibition of HNE.

[8] = tested on: U937 cells; experiment: LDH release from U937 cells; assay type: cell-based, human; conditions: 12.5 µM, after 26 h
Protocol: Cytotoxicity of the inhibitors was determined by analyzing the release of lactate dehydrogenase (LDH) into the cell culture medium using the LDH cytotoxicity kit II (PromoKine, Heidelberg, Germany) or the more sensitive Pierce LDH cytotoxicity assay kit (Thermo Scientific, Darmstadt, Germany) following the manufacturer’s instructions.

[9] = tested on: elastase-like activity in HL-60 lysates; experiment: Inhibition of elastase-like activity in HL-60 lysates; assay type: biochemical, human; conditions: 4 µM, 1 h, 37 °C
Description: as §2

[10] = target: T6, elastase-like activity (HNE) in PMN lysates (Homo sapiens, UniProt P08246); experiment: Inhibition of elastase-like activity in PMN lysates; assay type: biochemical; conditions: 4 µM, 1 h, 37 °C; read-out: inhibition of elastase-like activity in PMN lysate
T6 construct: from tissue; host or cells: neutrophil granulocytes from peripheral venous blood of healthy human donors
T6 sequence (P08246 30-247 limits assumed): T2 sequence (P08246 30-247 limits assumed)
Description: Residual erythrocytes were eliminated by hypotonic lysis.
as §2

[11] = tested on: surface of neutrophils; parameters: method as in earlier work; conditions: ref 41 (Braun and Schnebli); read-out: surface binding affinity Kd; cited from earlier work
[12] = target: T7, eglin C (Hirudo medicinalis, UniProt P01051); experiment: steady-state inhibition, Morrison fit, isolated HNE
T7 chain: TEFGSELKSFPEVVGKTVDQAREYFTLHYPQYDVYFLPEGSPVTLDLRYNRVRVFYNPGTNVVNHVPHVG

[13] = target: T7, eglin C; experiment: steady-state inhibition, Morrison fit, U937 lysate

CN(C(=O)c1cc2ccccc2cc1C(=O)C(c1cccc2ccccc12)P(=O)(O)O)C1CCN(C(=O)c2ccccc2)CC1 (centres unmarked) [Cathepsin G Inhibitor]
Ki ([1]; HNE 0.5 nM): > 10 µM
inhibition of HNE (in words) [1]: no inhibition

CCC[C@@H](NC(=O)N1C(=O)C(CC)(CC)[C@@H]1Oc1ccc(C(=O)N2CCN(C)CC2)cc1)c1ccc2c(c1)OCO2 [DMP 777]
Ki [2]: 0.00034 µM
time course of HNE inhibition in U937 cells (in words) [3]: inhibit HNE in U937 cells increasingly over the 26 h observation period
koff [4]: 0.00012 s⁻¹
kon [4]: 4.9 ± 0.4 × 10^5 M^−1 s^−1
potency in PMN compared with U937 cells (in words) [5]: somewhat less potent
Ki ([1]; HNE 0.5 nM): 0.00025 µM

CC(C)[C@@H]1C(=O)N(S(C)(=O)=O)[C@@H]2CCN(C(=O)/C=C/CN3CCCCC3)[C@H]21 [GW311616]
time course of HNE inhibition in U937 cells (in words) [3]: inhibit HNE in U937 cells increasingly over the 26 h observation period
potency in PMN compared with U937 cells (in words) [5]: somewhat less potent

Cc1c(-c2ccnn2C)cc(C(=O)NCc2ccc(S(C)(=O)=O)cn2)c(=O)n1-c1cccc(C(F)(F)F)c1 [Alvelestat, alvelestat]
Ki [2]: 0.011 µM
koff [6]: 0.057 s⁻¹
kon ([6]; too fast to be recorded with authors' setup): 7e+06 M⁻¹ s⁻¹
effect on HNE activity in the U937 cell culture model (in words) [3]: no detectable effect; also recorded: no measurable effect; also recorded: do not cause detectable intracellular inhibition
half-life of the complex with HNE (in words) [4]: seconds to a few minutes
effect on HNE in mature PMN (in words) ([5]; 1 h incubation): negligible effect
Ki ([1]; HNE 0.5 nM): 0.009 µM

COC(=O)CCC(=O)N[C@@H](C)C(=O)N[C@@H](C)C(=O)N1CCC[C@H]1C(=O)N[C@H](C(=O)CCl)C(C)C [MeOSuc-AAPV-CMK] (MeOSuc-AAPV-CH2Cl)
time course of HNE inhibition in U937 cells (in words) [3]: inhibit HNE in U937 cells increasingly over the 26 h observation period

N=C(N)c1ccccc1 [Benzamidine, benzamidine]
Ki [2]: > 1000 µM
Ki ([1]; HNE 0.5 nM): > 1000 µM
inhibition of HNE (in words) [1]: no inhibition

COc1cc(C(C)C)c2c(c1)S(=O)(=O)N(COc1cc(=O)n3cccc(OCCN4CCCCC4)c3n1)C2=O [SSR 69071]
Ki [2]: 0.00033 µM
stability in cell culture medium (in words) [7]: appeared stable
time course of HNE inhibition in U937 cells (in words) [3]: most effective immediately after addition and then lose effect over time; also recorded: lose effectiveness over time
koff [4]: 9.2e-05 s⁻¹
kon [4]: 2.8 ± 0.06 × 10^5 M^−1 s^−1
LDH release from U937 cells [8]: 12 ± 2%

CC(C)(C)C(=O)Oc1ccc(S(=O)(=O)Nc2ccccc2C(=O)NCC(=O)O)cc1 [Sivelestat, sivelestat]
inhibition at 4 µM ([2]; 4 µM, 1 h, 37 °C, read-out: inhibition of elastase-like activity in U937 lysate): 96 ± 0.3%
effect on HNE activity in the U937 cell culture model (in words) [3]: no detectable effect; also recorded: no measurable effect; also recorded: do not cause detectable intracellular inhibition
half-life of the complex with HNE (in words) [4]: seconds to a few minutes
inhibition of elastase-like activity in HL-60 lysate [9]: 2 ± 1.2%
effect on HNE in mature PMN (in words) ([5]; 1 h incubation): negligible effect
potency in PMN compared with U937 cells (in words) [5]: somewhat more effective in PMN than U937 cells
inhibition at 4 µM [10]: 97 ± 0.6%
inhibition at 4 µM ([1]; 4 µM, 1 h, 37 °C, HNE 0.5 nM): 99 ± 0.3%

B1: Eglin C: small leech-derived protein (70 amino acids, 8091 Da), proteinase inhibitor (protein, UniProt P01051 1-70, looked up)
Eglin C: T7 chain
fold less effective on HNE in cell lysates than on isolated HNE ([2]; U937 lysate vs isolated HNE): 10 fold
fold less potent in PMN lysates ([2]; printed 'PMN lysates'): ~ 10 fold
effect on HNE activity in the U937 cell culture model (in words) [3]: do not inhibit HNE
effect on HNE in U937 cells ([3]; 10 µM, after 26 h): little effect
koff [4]: 3.8e-05 s⁻¹
kon [4]: 2.9 ± 0.09 × 10^6 M^−1 s^−1
effect on HNE in mature PMN (in words) ([5]; 1 h incubation): inhibits intracellular HNE but only in mature neutrophils
IC50 ([5]; read-out: IC50, HNE in PMN, 1 h incubation): ~0.02 µM
IC50 ([5]; read-out: IC50 for the inhibition of intracellular HNE, mature neutrophils): 0.02 µM
Kd [11]: 0.2 µM

B2: neutrophil elastase (protein)
chain: T1 sequence (P08246 30-267)
Ki [12]: 0.013 nM
Ki [13]: 0.00019 µM
